Results published in the supplement of paper PMC8633005.

How the values were obtained:
Experiment in all cases: drug sensitivity score (DSS) (DSS (unitless, 0-50 scale)); higher = more sensitive (stronger viability inhibition); extreme values may be limits of the assay
Conditions in all cases: 72 h; culture: 2D
FM-MEL-3 = tested on: FM-MEL-3
Procedure, shortened: (§1)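 Drug sensitivity scores, modified area-under-curve measures, were derived from dose-response curves fitted in the in-house Breeze software. The curves came from melanoma cell lines and patient-derived melanoma cultures (1000–1500 cells per well) grown in 2D in 384-well plates holding a 527-compound oncology library. Each compound was dissolved in DMSO or water and tested at five concentrations across a 10,000-fold range. Viability was read by CellTiter-Glo luminescence after 72 h at 37 °C.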

Bowes = tested on: Bowes
Procedure, shortened: as §1

SK-MEL-2 = tested on: SK-MEL-2
Procedure, shortened: as §1

WM852 = tested on: WM852
Procedure, shortened: as §1

WM165 = tested on: WM165
Procedure, shortened: as §1

FM-MEL-6 = tested on: FM-MEL-6
Procedure, shortened: as §1

FM-MEL-2 = tested on: FM-MEL-2
Procedure, shortened: as §1

SK-MEL-28 = tested on: SK-MEL-28
Procedure, shortened: as §1

SMILES | drug sensitivity score (FM-MEL-3) | drug sensitivity score (Bowes) | drug sensitivity score (SK-MEL-2) | drug sensitivity score (WM852) | drug sensitivity score (WM165) | drug sensitivity score (FM-MEL-6) | drug sensitivity score (FM-MEL-2) | drug sensitivity score (SK-MEL-28)
Nc1nc(OCc2cc(Br)cs2)c2[nH]cnc2n1 [Lomeguatrib] | 0 | 0 | 0 | 0 | 0 | 0 | 0 | 0
NC(=O)N1CCC(CC(=O)N2CCC([C@H]3c4ncc(Br)cc4CCc4cc(Cl)cc(Br)c43)CC2)CC1 [Lonafarnib] | 18.2 | 30.9 | 5.3 | 12.1 | 13 | 8.1 | 9.4 | 8.1
Cc1c(F)cc(C(=O)NC2CC2)cc1-c1ccc(C(=O)NCC(C)(C)C)cn1 [Losmapimod] | 0.7 | 2.8 | 0 | 0 | 0 | 0 | 1.6 | 0
CC[C@H](C)C(=O)O[C@H]1C[C@@H](C)C=C2C=C[C@H](C)[C@H](CC[C@@H]3C[C@@H](O)CC(=O)O3)[C@H]21 [Lovastatin] | 0.1 | 2.1 | 0 | 0.6 | 1.8 | 0 | 0 | 0
CNC(=O)c1cccc2cc(Oc3ccnc4cc(OCC5(N)CC5)c(OC)cc34)ccc12 [Lucitanib] | 0 | 5.4 | 0 | 2.2 | 1.6 | 1.3 | 0.3 | 0
CCNC(=O)c1noc(-c2cc(C(C)C)c(O)cc2O)c1-c1ccc(CN2CCOCC2)cc1 [Luminespib] | 21.4 | 15.2 | 9.3 | 9.7 | 20.3 | 8.1 | 10.7 | 9.2
O=C(O)CC[C@H]1CC[C@@](c2cc(F)ccc2F)(S(=O)(=O)c2ccc(Cl)cc2)CC1 [MK-0752] | 0 | 0 | 0 | 0 | 0 | 0 | 0 | 0
NC1(c2ccc(-c3nc4ccn5c(=O)[nH]nc5c4cc3-c3ccccc3)cc2)CCC1 [MK-2206] | 0.9 | 0 | 0 | 0.4 | 1.1 | 1.9 | 2.6 | 2
O=C(c1cccc(Cl)c1F)N1CCN(Cc2cccc(Nc3nccs3)n2)CC1 [MK-8745] | 0.1 | 5.7 | 0 | 7.5 | 5.7 | 0 | 0 | 0.4
Cn1cc(-c2cnn3c(N)c(Br)c([C@@H]4CCCNC4)nc23)cn1 [MK-8776] | 1.7 | 0.9 | 2 | 1.9 | 0 | 0 | 0 | 0
Cc1cnc(-c2ccccc2C(C)C)nc1NCc1ccc(-n2ccnn2)cc1 [ML323] | 1.2 | 0.6 | 0 | 0.9 | 1.1 | 0 | 0 | 0
O=C(CCNC(=O)c1ccc(OC(F)(F)F)cc1)N[C@@H]1CCCc2ccccc21 [ML390] | 6.7 | 0 | 0 | 0 | 6.8 | 1.2 | 0 | 2.8
O=C(Nc1cccc(NC(=O)c2cccc(O)c2O)c1)c1cccc(O)c1O [MST-312] | 10.3 | 11.4 | 6.7 | 6.8 | 16 | 4 | 6.1 | 8.4
CNC(=O)[C@@H](NC(=O)[C@H](CC(C)C)[C@H](O)C(=O)NO)C(C)(C)C [Marimastat] | 0 | 0 | 0 | 0 | 0.6 | 0 | 0 | 0
Cc1ccc(NC(=O)c2ccc(CN3CCN(C)CC3)cc2)cc1Nc1nc(-c2cccnc2)cs1 [Masitinib] | 4.3 | 2.3 | 2.1 | 5.7 | 3.3 | 4.4 | 6.4 | 3.5
CC(=O)O[C@]1(C(C)=O)CC[C@H]2[C@@H]3C=C(C)C4=CC(=O)CC[C@]4(C)[C@H]3CC[C@@]21C [Megestrol acetate] | 1 | 0 | 0 | 0 | 0 | 0 | 0 | 0
CCN(CC)CCCC(C)Nc1c2ccc(Cl)cc2nc2ccc(OC)cc12 (stereo not drawn) [Mepacrine] | 9.9 | 19.6 | 13.6 | 17 | 17.1 | 14.2 | 15.1 | 10.3
S=c1[nH]cnc2nc[nH]c12 [Mercaptopurine] | 0 | 1.9 | 0 | 5.5 | 7.3 | 0.5 | 0.1 | 3.8
Cc1ccc(C(=O)Nc2ccc(Oc3cc4cnn(C)c4cc3-c3cn[nH]c3)c(F)c2)c(=O)n1-c1ccc(F)cc1 [Merestinib] | 0 | 0 | 0 | 2.2 | 0 | 0 | 0 | 0.4
CN(C)C(=N)NC(=N)N [Metformin] | 0 | 0 | 0 | 0 | 0 | 0 | 0 | 0
CN(Cc1cnc2nc(N)nc(N)c2n1)c1ccc(C(=O)N[C@@H](CCC(=O)O)C(=O)O)cc1 [Methotrexate] | 0 | 27.7 | 0 | 0 | 14.4 | 0 | 0 | 9
